Data published in patent US20170029841A1, “METHODS AND COMPOSITIONS FOR SELECTIVE REGULATION OF PROTEIN EXPRESSION” (priority 2015, published 2017).

System: maize tissue pools (tassel, ear, leaf, root, stem)
Test: siRNA profiling microarray assay of mts-siRNA sequences across maize tissues
Details: for 01DKD2 V8-V9 Tassel relative signal value: germplasm 01DKD2, V8-V9 tassel; for 01DKD2 V10-V12 Tassel relative signal value: germplasm 01DKD2, V10-V12 tassel; for 01DKD2 Other Tissue relative signal value: germplasm 01DKD2, combined signals from other tissue; for LH244 V8-V9 Tassel relative signal value: germplasm LH244, V8-V9 tassel; for LH244 V10-V12 Tassel relative signal value: germplasm LH244, V10-V12 tassel; for LH244 Other Tissue relative signal value: germplasm LH244, combined signals from other tissue
Procedure: A siRNA profiling microarray assay was performed using μParaflo® Microfluidics chips provided by LC Sciences LLC (Houston, Tex., USA) with 1,200 sequences selected from the thousands of mts-siRNA sequences identified from the differential bioinformatic analysis. The microarray chips contained triplicate probes of the complementary sequence for each of the 1,200 mts-siRNA sequences. Total RNA was purified from 26 maize tissue pools (duplicate or triplicate tissue pools) from either LH244 (ATCC deposit number PTA-1173) or 01DKD2 (I294213) (ATCC deposit number PTA-7859) inbred plants. Each of the 26 RNA samples were hybridized with the microarray chips that contain probes for the 1,200 mts-siRNA. Hybridization images were collected using a GenePix® 4000B laser scanner (Molecular Devices, Sunnyvale, Calif.) and digitized using Array-Pro® Analyzer image analysis software (Media Cybernetics, Rockville, Md.). Relative signal values were derived by background subtraction and normalization. Differentially expressed signals were determined by t-test with p<0.05. From the microarray analysis, about 500 mts-siRNA from the 1,200 were identified as being highly tassel-specific.
Selected mts-siRNA sequences aligning to one of the six cDNA sequences were used for further microarray analysis to determine differential expression across maize tissues. Microarray analysis for mts-siRNA sequences of normalized signal values for V8-V9 tassel, V10-V12 tassel, or combined signals from the other tissue for maize germplasm LH244 and 01DKD2 is presented in Tables 3-10. […] Signal value results are measured as relative signal values and standard error (p<0.05) is represented by (STDR). […] The mts-siRNA sequence corresponds to the sense or antisense strand of the corresponding mts-siRNA target sequence in the cDNA sequence. The mts-siRNA sequence may have a single nucleotide, a two nucleotide, or a three nucleotide mismatch with the aligned portion of the cDNA sequence, and the mts-siRNA sequence may align to the sense strand or antisense strand of the cDNA sequence. The mts-siRNA sequences provided here are found across different maize germplasms.

Substance	01DKD2 V8-V9 Tassel relative signal value	01DKD2 V10-V12 Tassel relative signal value	01DKD2 Other Tissue relative signal value	LH244 V8-V9 Tassel relative signal value	LH244 V10-V12 Tassel relative signal value	LH244 Other Tissue relative signal value
SEQ ID NO: 80: mts-siRNA sequence aligning to cDNA SEQ ID NO: 22 (CATCAACGACTACAACGGTGAA; expressed or natural sequence)	2.5	230	0.5	138	383.3	0.7
SEQ ID NO: 70: mts-siRNA sequence aligning to cDNA SEQ ID NO: 22 (CATGCACTGGTGAGTCACTGTTG; expressed or natural sequence)	3	873	4	56.5	694	1.8
SEQ ID NO: 76: mts-siRNA sequence aligning to cDNA SEQ ID NO: 22 (ACAGTGACTCACCAGTGCATG; expressed or natural sequence)	2.5	276.5	4	55	252.3	5.7
SEQ ID NO: 38: mts-siRNA sequence aligning to cDNA SEQ ID NO: 18 (CTCAACATCCGATTCACCCTCA; expressed or natural sequence)	8.5	1305.5	3	768.5	1442.7	1.4
SEQ ID NO: 66: mts-siRNA sequence aligning to cDNA SEQ ID NO: 21 (TGGTCATACACTAGATAGGGC; expressed or natural sequence)	61	55.5	2.8	199.5	48	1.9
SEQ ID NO: 86: mts-siRNA sequence aligning to cDNA SEQ ID NO: 22 (CAAGGCAAGAAGGTGCTTGTTGTC; expressed or natural sequence)	3	256.5	3	173.5	241.7	2.4
SEQ ID NO: 42: mts-siRNA sequence aligning to cDNA SEQ ID NO: 18 (ACTACAGTGAGAGTCTAGGAAAGC; expressed or natural sequence)	6	588	5.3	143.5	564.3	2.6
SEQ ID NO: 81: mts-siRNA sequence aligning to cDNA SEQ ID NO: 22 (ACCATCAACGACTACAACGGTGAA; expressed or natural sequence)	1	320	0	207	470.3	1.6
SEQ ID NO: 78: mts-siRNA sequence aligning to cDNA SEQ ID NO: 22 (GCATGCACTGGTGAGTCACTGTTG; expressed or natural sequence)	3	715.5	4.5	47.5	642.7	1
SEQ ID NO: 61: mts-siRNA sequence aligning to cDNA SEQ ID NO: 21 (CTGTGATGTAGAAGCCCAGAC; expressed or natural sequence)	461	454	8	850.5	334.7	9.4
SEQ ID NO: 30: mts-siRNA sequence aligning to cDNA SEQ ID NO: 17 (CACCATGCACGGTCGTCGT; expressed or natural sequence)	32	282	6.5	173.5	495.7	4.2
SEQ ID NO: 73: mts-siRNA sequence aligning to cDNA SEQ ID NO: 22 (AAGCTATCGATTCCCTAAGTGCCA; expressed or natural sequence)	37.5	1695.5	2	1058.5	2395.7	4.5
SEQ ID NO: 60: mts-siRNA sequence aligning to cDNA SEQ ID NO: 20 (CGTCGTGCAGCTGGTCACCGGT; expressed or natural sequence)	75.5	303	9.3	141.5	265.7	5.8
SEQ ID NO: 29: mts-siRNA sequence aligning to cDNA SEQ ID NO: 17 (CCGTGCATGGTGATGAATCC; expressed or natural sequence)	86	535.5	4	292.5	886.7	2.2
SEQ ID NO: 39: mts-siRNA sequence aligning to cDNA SEQ ID NO: 18 (CATCGACCAATGACATTCCCTC; expressed or natural sequence)	16	1514.5	1.5	442.5	2157.3	0.6
SEQ ID NO: 75: mts-siRNA sequence aligning to cDNA SEQ ID NO: 22 (ACAGTGACTCACCAGTGCATGCAC; expressed or natural sequence)	3	257	5	53	237.3	3.3
SEQ ID NO: 35: mts-siRNA sequence aligning to cDNA SEQ ID NO: 18 (TAGCCACACGGTCACGTTTGGACG; expressed or natural sequence)	4	519	2.8	437	117.7	1.6
SEQ ID NO: 69: mts-siRNA sequence aligning to cDNA SEQ ID NO: 21 (GCTCATAAAATCACTGTTCAT; expressed or natural sequence)	309.5	282.5	9.8	516	185	11.2
SEQ ID NO: 72: mts-siRNA sequence aligning to cDNA SEQ ID NO: 22 (GGCCTCCCTTCCCTATGGTAGCC; expressed or natural sequence)	332.5	530	233.3	323.5	325.7	1324.8
SEQ ID NO: 49: mts-siRNA sequence aligning to cDNA SEQ ID NO: 19 (TACTACTACTCCCTTCTCGG; expressed or natural sequence)	57.5	867	55.3	340	1241.7	16.3
